Measurements published in patent US20240336567A1, “PESTICIDAL AND HERBICIDAL COMPOUNDS AND METHODS OF USE THEREOF” (AG Plenus Ltd, priority 2021, published 2024).

Key:
[1] = system: ABUTH; assay: In-planta LTP post-emergence, visual phenotype; assay type: in vivo, Abutilon theophrasti; settings: dicot
Experimental: (§1) A basic panel of eight weed species (Table 3) sowed in 4×4×7 cm plastic pots containing a garden mix (klasmann). Each specie was sowed in a separate pot. In each pot, 10-15 seeds were sowed according to the specie viability. Timing of application determined at a 1-2 true leaf stage. The plants grew for 30 days in a controlled greenhouse (26±2° C. day, 20±2° C. night). Hood irrigation (tap water+Shefer 5:3:8 8 mM) was given at a 50% water content by weight. Two days before application, the tested plants thinned down to three plants per pot. Compounds were soluble in water (DDW), and commercial herbicide control was soluble in formulation B (Table 4). […] Plants were evaluated at 3 time points (4, 8, 12 days after application (DAA)). At each time point, visual phenotyping was recorded using a scale of 0-6 (0: no visible effect, 6: maximum effect). […]
(§2) Post-emergence advanced dose response experiment included 4 species: SETVI, ECHCO, AMAPA, ABUTH (Tables 3, 5). […] Plants were evaluated at 4 time points (6, 12, 18 and 26 DAA). At each time point, visual phenotyping was recorded using a scale of 0-6 (0: no visible effect, 6: maximum effect). […]
(§3) Post-emergence advanced wide panel experiment included 24 weed species (Table 5). […] Visual phenotyping was recorded at 4, 11, 17 and 20 DAA using a scale of 0-6 (0: no visible effect, 6: maximum effect). […]

[2] = system: ECHCO; assay: In-planta LTP post-emergence, visual phenotype; assay type: in vivo, Echinochloa colona; settings: monocot
Experimental: as §1, §2, §3

[3] = system: SETVI; assay: In-planta LTP post-emergence, visual phenotype; assay type: in vivo, Setaria viridis; settings: monocot
Experimental: as §1, §2, §3

[4] = system: MATCA; assay: In-planta LTP pre-emergence, visual phenotype; assay type: in vivo, Matricaria chamomilla; settings: dicot
Experimental: A basic panel of 8 weed species (Table 3) were sowed in 4×4×7 cm plastic pots containing inert sand (Sweet sand), intensively washed using osmosis water. Each specie was sowed in a separate pot. In each pot 10-15 seeds were sowed according to the specie viability. Sowing was performed one day before application. The plants were grown for 21 days in a controlled greenhouse (26±2° C. day 20±2° C. night). Hood irrigation (tap water+Shefer 5:3:8 8 mM) was given at a 50% water content by weight. Compounds were soluble in water (DDW), and commercial herbicide control was soluble in formulation B (Table 4). Application was conducted with an industrial sprayer (TeeJet 6502E nozzle) at a rate of 2 kg/ha and spray volume of […]. Pre-emergence advanced dose response experiment application was conducted at six rates between 1-0.0312 kg/ha and spray volume of […]. Percentage of emergence was evaluated at 15 DAA. Visual phenotyping was recorded using a scale of 0-6 (0: no visible effect, 6: maximum effect) at 18 DAA. All experiments included an untreated control, a solvent control and a positive control (commercial herbicide A.I.). Statistical analysis for visual phenotyping determined by a median value of ≥3.5 and Fisher test (pval≤0.05). Statistical analysis for plant emergence determined by % emergence ≥50 and T test (pval≤0.05), as well as Wilcox test (pval≤0.05).

[5] = system: POAAN; assay: In-planta LTP post-emergence, visual phenotype; assay type: in vivo, Poa annua; settings: monocot
Experimental: as §1, §2, §3

Row | Compound | BL Bleaching (% effect) [1] | IG Inhibited growth (% effect) [2] | IG Inhibited growth (% effect) [3] | IG Inhibited growth (% effect) [4] | IG Inhibited growth (% effect) [5]
1 | CC(N)COc1cccc(C(=O)O)c1 (stereo not shown) [Compound 106] | BL (60) % | IG^1 (60) % |  |  | 
2 | C#CCOC(=O)c1cccc(OCC(C)N)c1 (stereo not shown) [Compound 111] | BL (40) % |  | IG (60) % |  | 
3 | CCCCOC(=O)c1cccc(OCC(C)N)c1 (stereo not shown) [Compound 112] |  |  |  | IG (60) % | 
4 | C[C@@H](N)COc1cccc(C(=O)O)c1 [Compound 154] |  |  | IG (60) % |  | IG (60) %
